These results are taken from patent publication US10231972B2, “Combination of a 6-oxo-1,6-dihydro-pyridazine derivative having anti-cancer activity with a quinazoline derivative” (MERCK PATENT GMBH, priority 2014, dated 2019).

SMILES strings stand for the structures.

What all share (type): in vivo
In test [1] the test system is human NCI-H441 tumor cells. The experiment in a line: Human NCI-H441 lung xenograft model. The following applies: oral daily; for median tumor volume change: day 21, female CD-1 nude mice, s.c. NCI-H441, 100 mg/kg pyridazinone, 30 mg/kg quinazoline, alone or combined; for median time until tumor progression: progression = TV change >73%, treatment up to 78 days, CD-1 nude mice. On the procedure:
Background: The human NCI-H441 lung model is an c-Met overexpressing tumor model with an activated c-Met pathway. This model carries a kras mutation. Literature data have shown phosphorylation of S6K is present in this tumor model.
(§1) Method: Female CD-1 nude mice (6-8 week old) where subcutaneously injected with human NCI-H441 tumor cells and were divided into treatment groups (8 animals per group) after the tumors were established. Respective groups were administered orally with the 3-(1-{3-[5-(1-Methyl-piperidin-4-ylmethoxy)-pyrimidin-2-yl]-benzyl}-6-oxo-1,6-dihydro-pyridazin-3-yl)-benzonitrile hydrochloride hydrate (100 mg/kg) or 4-[(S)-2-azetidin-1-yl-1-(4-chloro-3-trifluoromethyl-phenyl)-ethylamino]-quinazoline-8-carboxylic acid amide (30 mg/kg) daily in monotherapy or in combination until tumors progressed or until treatment period of 78 days. At day 21, the day of vehicle group termination, median tumor volume change in % were calculated. Statistical analysis has been done with two way-RM ANOVA. Median time until tumor progression under treatment has been calculated at the end of the study. Tumor progression is defined as tumor volume change >73%.
For orientation: In xenograft studies the graft and the host belong to different species.

In another test the test system is human H596 tumor cells. The experiment in a line: Human HGF dependent H596 lung xenograft model. The following applies: oral daily; for median tumor volume change: day 14, female humanized HGF SCID mice, s.c. H596, 100 mg/kg pyridazinone, 30 mg/kg (from day 12 20 mg/kg) quinazoline, alone or combined; for median time until tumor progression: progression = TV change >73%, treatment up to 66 days, humanized HGF SCID mice.
Source text: Background: The human H596 lung model is c-Met expressing paracrine HGF/c-Met tumor model which a juxta-membran (JM) domain mutation of c-Met which lead to prolonged c-Met activation after HGF ligand binding. The model expresses […] with an activated c-Met pathway. This model carries a PI3KCA mutation (literature data).
Method: Female humanized HGF SCID mice (8-10 weeks old) where subcutaneously injected with human H596 tumor cells and were divided into treatment groups (8 animals per group) after the tumors were established.
as §1, with “Respective” for “Method: Female CD-1 nude mice (6-8 week old) where subcutaneously injected with human NCI-H441 tumor cells and were divided into treatment groups (8 animals per group) after the tumors were established. Respective”, “(30 mg/kg, from day 12 20” for “(30”, “of 66” for “of 78”, “day 14,” for “day 21,”, “day when all animals in the” for “day of”, “group were still present,” for “group termination,”

The subject of another test is human U87-MG tumor cells. The experiment in a line: Human U87-MG xenograft model. The following applies: oral daily; for median tumor volume (TV) change: day 12, female CD-1 nude mice, s.c. U87-MG, 100 mg/kg pyridazinone, 30 mg/kg quinazoline, alone or combined; for median time until tumor progression: progression = TV change >73%, treatment up to 65 days, CD-1 nude mice. The procedure: Background: The human U87-MG glioblastoma model is an autocrine HGF/c-Met expressing tumor model with an activated c-Met pathway. This model carries a mutation of PTEN, a negative regulator of the PI3K signaling.
Method: Female CD-1 nude mice (6-8 weeks old) where subcutaneously injected with human U87-MG tumor cells and were divided into treatment groups (8 animals per group) after the tumors were established. Respective groups were administered orally with the 3-(1-{3-[5-(1-Methyl-piperidin-4-ylmethoxy)-pyrimidin-2-yl]-benzyl}-6-oxo-1,6-dihydro-pyridazin-3-yl)-benzonitrile hydrochloride hydrate (100 mg/kg) or 4-[(S)-2-azetidin-1-yl-1-(4-chloro-3-trifluoromethyl-phenyl)-ethylamino]-quinazoline-8-carboxylic acid amide (30 mg/kg) daily in monotherapy or in combination until tumors progressed or until treatment period of 65 days. At day 12, the day of vehicle group termination, median tumor volume (TV) change in % were calculated. Statistical analysis has been done with two way-RM ANOVA. Median time until tumor progression under treatment has been calculated at the end of the study. Tumor progression is defined as tumor volume change >73%.

Regarding `CN1CCC(COc2cnc(-c3cccc(Cn4nc(-c5cccc(C#N)c5)ccc4=O)c3)nc2)CC1.Cl.O` [3-(1-{3-[5-(1-Methyl-piperidin-4-ylmethoxy)-pyrimidin-2-yl]-benzyl}-6-oxo-1,6-dihydro-pyridazin-3-yl)-benzonitrile hydrochloride hydrate], in test [1], the “median tumor volume change” value is −1% and the “median time until tumor progression” value was determined as 67 days. Further, in the test on human H596 tumor cells, the “median tumor volume change” value is on record as 35% and the “median time until tumor progression” value was 24 days. Also, in the test with human U87-MG tumor cells, the “median tumor volume (TV) change” value is listed as −71% and the “median time until tumor progression” value is reported as 58 days.

For `NC(=O)c1cccc2c(N[C@H](CN3CCC3)c3ccc(Cl)c(C(F)(F)F)c3)ncnc12` [4-[(S)-2-Azetidin-1-yl-1-(4-chloro-3-trifluoromethyl-phenyl)-ethylamino]-quinazoline-8-carboxylic acid amide], in test [1], the “median tumor volume change” value worked out at 138% and the “median time until tumor progression” value is given as 14 days. In the test on human H596 tumor cells, the “median tumor volume change” value is 36% and the “median time until tumor progression” value is listed as 24 days. In addition, in the test on human U87-MG tumor cells, the “median tumor volume (TV) change” value is 51% and the “median time until tumor progression” value amounted to 14 days.
